Read-outs that look alike come from different tables or passages of the source.
Experiments:
[1] = Pharmacokinetic profile in fasted beagle dogs; type: in vivo; settings: dog, blood, po, 1 mg/kg; for Cmax / AUC(0-t): 3 fasted beagle dogs; for AUC(0-t): read-out: AUC0-24
Description: The API is Compound A, or a pharmaceutically acceptable salt thereof. Bioavailability is determined in vivo by dosing trial formulations and/or other formulations of the active pharmaceutical ingredient (API) to Beagle dogs at a dose of 1 mg/kg of the API and then measuring the amount of API in the serum or blood as a function of time. The spray dried particles from Spray Dry Process I were made into granules as follows. The particles were blended in a suitable blender (V or Bohle) with microcrystalline cellulose (diluent/compression aid), lactose (diluent/compression aid), croscarmellose sodium (a disintegrant), colloidal silicon dioxide (a glidant), and magnesium stearate (a lubricant). The blended powders were then roller compacted into granules, subjected to extragranular lubrication, and filled into capsules.

[2] = Storage of neat amorphous spray dried drug in open container, crystallization; type: physicochemical; settings: neat amorphous drug generated by spray drying
Excerpt: It is well understood that crystallization tendency varies dramatically across active pharmaceutical ingredients (Journal of Pharmaceutical Sciences, Vol. 99, No. 9, September 2010) and the rate of crystallization is a function of the thermodynamic driving force and the mobility of the system (Angell, C. A., Formation of Glasses from Liquids and Biopolymers. Science, 1995. 267(5206): p. 1924-1935. Mullin, J. W., Crystallization. 4th ed. 2001, Oxford: Reed Educational and Professional Publishing Ltd. Hoffman, J. D., Thermodynamic Driving Force in Nucleation and Growth Processes. Journal of Chemical Physics, 1958. 29(5): p. 1192-1193. Adam, G. and Gibbs, J. H., On Temperature Dependence of Cooperative Relaxation Properties in Glass-Forming Liquids. Journal of Chemical Physics, 1965. 43(1): p. 139-146. Ediger, M. D., Supercooled liquids and glasses. Journal of Physical Chemistry, 1996. 100(31): p. 13200-13212.). […] Neat amorphous drug generated by spray drying crystallizes within 2 weeks when stored in an open container at 5° C./ambient relative humidity (RH), 30° C./65% RH, 40° C./75% RH, and 60° C./ambient RH.

[3] = capsule of spray dried dispersion: 10% Compound A, 40% HPMCAS-LG
[4] = comparison capsule: 30% crystalline Compound A without polymer, 5% sodium lauryl sulfate

For Cn1c(Cn2ccc(C(F)(F)F)c(Oc3cc(Cl)cc(C#N)c3)c2=O)n[nH]c1=O [Compound A, 3-chloro-5-({1-[(4-methyl-5-oxo-4,5-dihydro-1H-1,2,4-triazol-3-yl)methyl]-2-oxo-4-(trifluoromethyl)-1,2-dihydropyridin-3-yl}oxy)benzonitrile], the Tmax [1] was 4 h, the Cmax [1, 3] was 7.23 ± 0.99 µM and the AUC(0-t) [1, 3] was 137 ± 25.3 µM·h. The Cmax [1, 4] was 3.46 ± 1.59 µM, the AUC(0-t) [1, 4] was 52.4 ± 15.9 µM·h and the time to crystallization ([2]; 5° C./ambient RH) was no more than 2 weeks. For the same molecule, the time to crystallization ([2]; 30° C./65% RH) was no more than 2 weeks, the time to crystallization ([2]; 40° C./75% RH) was no more than 2 weeks and the time to crystallization ([2]; 60° C./ambient RH) was no more than 2 weeks.

— patent publication US20160287568A1, “COMPOSITION OF A NON-NUCLEOSIDE REVERSE TRANSCRIPTASE INHIBITOR” (MERCK SHARP & DOHME CORP., priority 2013, published 2016)
